The text below walks through data of patent US20250066360A1, “PYRIDINE-CONTAINING POLYCYCLIC DERIVATIVE, AND PREPARATION METHOD THEREFOR AND USE THEREOF” (SHANGHAI HANSOH BIOMEDICAL CO., LTD., priority 2022, published 2025).

One series concerns the target p38-MK2 (Homo sapiens, UniProt P49137+Q16539). The conditions noted are these: patients with rheumatoid arthritis, preliminary clinical trial results; cited from earlier work.
A further series has as its system p-Hsp27 in U937 cells. The series is described as follows: Inhibition of p-Hsp27 in LPS-stimulated U937 cells (ELISA). It counts as cell-based. The conditions noted are these: Homo sapiens, U-937; PMA-differentiated U937, 10 ng/ml LPS 0.5 hours; read-out: U937 cell activity test p-HSP27 IC50. The protocol:
U937 cells were treated with 20 ng/ml PMA for differentiation overnight, and after replacement with a fresh culture medium, the U937 cells were rested overnight. After differentiation, the U937 cell were digested and counted, and 25,000 cells per well were seeded in a 96-well plate until the cells adhered to the wall. A compound concentration gradient was prepared, the cells were pretreated with the compound for 1 hour (the highest final concentration of the compound was 1 μM, diluted in 3-fold concentration gradient), and 10 ng/ml LPS (Lipopolysaccharides from Escherichia coli O111:B4) was added for stimulation for 0.5 hours. After the cells were washed with PBS, the cells were lysed with a lysis solution. p-Hsp27 in the cell lysate was detected by using Phospho-HSP27 (S78/S82) DuoSet IC ELISA kit. For specific steps, reference could be made to the standard steps provided by the kit manufacturer.
Calculation of p-Hsp27 inhibition rate: Inhibition rate %=[(mean value of p-Hsp27 in positive control well−mean value of p-Hsp27 in sample well)/(mean value of p-Hsp27 in positive control well−mean value of p-Hsp27 in negative control well)]×100%, wherein the positive control well was a well without a compound (DMSO-treated well), and the negative control well was a well without LPS stimulation.
Dose response curve fitting: Log(inhibitor) vs. response−Variable slope (four parameters) in GraphPad Prism 6 was used for fitting equation analysis of the compound concentration and the corresponding inhibition rate, and the curve was fitted to obtain the IC50 value of the compound.
(§1) The fitting calculation equation was Y=Bottom+(Top−Bottom)/(1+10^((Log IC50−X)*HillSlope)).
Background: An ELISA detects its analyte on a solid surface through an enzyme-linked reagent.

The target in another series is T1, p38α/MK2 (Homo sapiens, UniProt P49137+Q16539).
T1 construct: purchased R & D systems (p38 alpha); Thermo (MK2) 5477-KS-010; PV3316
Nature of the series: Inhibition of p38α/MK2 enzyme activity (TR-FRET, ULight-CREBtide). It counts as biochemical. As for the experimental part: (§2) 50 nM ULight-CREBtide and 25 μM ATP (ATP Solution) were added, and the mixture was reacted at room temperature for 1.5 hours. An equal volume of a detection and termination mixed solution (1×LANCE detection buffer containing 20 mM EDTA and 2 nM Europium-anti-phospho-CREB) was added, the mixture was mixed until uniform and centrifuged, a plate sealing film was attached, and a reaction was performed at room temperature for 1 hour. TR-FRET program of the EnVision instrument was used to read the plate, and the fluorescence value of each well was detected at 665 nm/615 nm.
(§3) Calculation was performed on the raw data (665 nm/615 nm reading ratio) according to the following formula to obtain the inhibition rate. Inhibition rate %=[(mean value in positive control well−value in sample well)/(mean value in positive control well−mean value in negative control well)]×100, wherein the positive control well was a reaction well without a compound […], and the negative control well was a reaction wells without an enzyme.
(§4) Log(inhibitor) vs. response−Variable slope (four parameters) in GraphPad Prism 6 was used for fitting equation analysis of the compound concentration and the corresponding inhibition rate, and the curve was fitted to obtain the IC50 value of the compound.
as §1

A short description of series [1]: Pharmacokinetic assay in SD rats (PO administration). The conditions noted are these: male, Sprague-Dawley (SD), rat, 5 mg/kg, plasma. It counts as in vivo. As for the experimental part:
SD rats were used as test animals to study the pharmacokinetic behavior of the compounds of the present invention in the rat body (plasma) after oral administration at a dose of 5 mg/kg or 2 mg/kg and intravenous administration at a dose of 1 mg/kg.
3 SD rats/group, male, from Shanghai Jiesijie Experimental Animal Co., Ltd., animal production license number (SCXK (Shanghai) 2013-0006 N0.311620400001794).
PO, 10% solutol HS15 was dissolved by ultrasound and prepared into a clear solution or homogeneous suspension.
3 SD rats/group, male; After fasting overnight, the rats were administered p.o. at a dose of 5 mg/kg or 2 mg/kg with a dosage volume of 10 mL/kg and i.v. at a dose 1 mg/kg with a dosage volume of 5 mL/kg, respectively.
At 0.25, 0.5, 1, 2, 4, 6, 8, and 24 h after oral administration in the rats and at 0.083, 0.25, 0.5, 1, 2, 4, 6, 8, and 24 h after intravenous administration in the rats, 0.2 mL of blood was collected from the jugular vein, placed in an EDTA-K2 test tube, centrifuged at 4° C. at 6000 rpm for 6 min to separate plasma, which was stored at −80° C.
• 1) 100 μL of acetonitrile was added to 20 μL of plasma sample for pelleting, and it was mixed and centrifuged at 3500×g for 5-20 min. • 2) The treated supernatant solution was taken and subjected to LC/MS/MS to analyze the concentrations of the test compounds. LC/MS/MS analysis instrument: AB Sciex API 4000 Qtrap.
• Liquid phase conditions: Shimadzu LC-20AD pump • Chromatographic column: Waters Xbridge C18 5 μm, 4.6×50 mm, mobile phase: liquid A was 0.1% aqueous formic acid solution, and liquid B was methanol • Flow rate: 1.0 mL/min • Elution time: 0-4.0 min, the eluent was as follows:
The main pharmacokinetic parameters were calculated using WinNonlin 6.1.

In series [2] the target is T2, p38a (Active p38 alpha Protein) (Homo sapiens, UniProt Q16539).
T2 construct: purchased R & D systems 5477-KS-010
The series is described as follows: Inhibition of p38 enzyme activity (TR-FRET, ULight-MBP). It is filed as biochemical. The conditions noted are these: 3 nM p38a, 50 μM ATP. As for the experimental part: as §2, with “Experimental method for determining the p38 enzyme activity: 3 nM p38a (Active p38 alpha Protein) and compounds diluted in a certain concentration gradient were incubated in 1× enzyme reaction buffer (50 mM HEPES pH 7.5, 1 mM EGTA, 10 mM MgCl2, 2 mM DTT, 0.01% Tween-20) for 1 hour. 50” for “50”, “ULight-MBP” for “ULight-CREBtide”, “50” for “25”, “(ATP 10 mM” for “(ATP”, “Europium-anti-P-MBP)” for “Europium-anti-phospho-CREB)”
as §3, §4, §1

The subject of a further series is TNF-α in U937 cells. The series is described as follows: Inhibition of the expression level of TNF-α in LPS-stimulated U937 cells (ELISA). The conditions noted are these: Homo sapiens, U-937; PMA-differentiated U937, 10 ng/ml LPS 4 hours; read-out: U937 cell activity test TNF-α IC50. It is filed as cell-based. The protocol: U937 cells were treated with 20 ng/ml PMA for differentiation overnight, and after replacement with a fresh culture medium, the U937 cells were rested overnight. After differentiation, the U937 cells were digested and counted, and 50,000 cells per well were seeded in a 96-well plate until the cells adhered to the wall. A compound concentration gradient was prepared, the cells were pretreated with the compound for 1 hour (the highest final concentration of the compound was 1 μM, diluted in 3-fold concentration gradient), and 10 ng/ml LPS (Lipopolysaccharides from Escherichia coli O111:B4) was added for stimulation for 4 hours. Thereafter, the culture supernatant was collected by centrifugation and used for subsequent ELISA to detect the concentration of TNF-α in the supernatant. The concentration of TNF-α was detected according to the standard steps provided by the ELISA kit manufacturer.
A standard curve was plotted by a linear regression method from a TNF-α standard, and the concentration of TNF-α in a sample was derived by conversion according to the standard curve.
Calculation of inhibition rate: Inhibition rate %=[(mean value of TNF-α concentration in positive control well−mean value of TNF-α concentration in sample well)/(mean value of TNF-α concentration in positive control well−mean value of TNF-α concentration in negative control well)]×100%, wherein the positive control well was a well without a compound (DMSO-treated well), and the negative control well was a culture medium well.
Dose response curve fitting: Log(inhibitor) vs. response−Variable slope (four parameters) in GraphPad Prism 6 was used for fitting equation analysis of the compound concentration and the corresponding inhibition rate, and the curve was fitted to obtain the IC50 value of the compound. The fitting calculation equation was Y=Bottom+(Top−Bottom)/(1+10^((Log IC50−X)*HillSlope)).

T1 sequence (Q16539 whole entry): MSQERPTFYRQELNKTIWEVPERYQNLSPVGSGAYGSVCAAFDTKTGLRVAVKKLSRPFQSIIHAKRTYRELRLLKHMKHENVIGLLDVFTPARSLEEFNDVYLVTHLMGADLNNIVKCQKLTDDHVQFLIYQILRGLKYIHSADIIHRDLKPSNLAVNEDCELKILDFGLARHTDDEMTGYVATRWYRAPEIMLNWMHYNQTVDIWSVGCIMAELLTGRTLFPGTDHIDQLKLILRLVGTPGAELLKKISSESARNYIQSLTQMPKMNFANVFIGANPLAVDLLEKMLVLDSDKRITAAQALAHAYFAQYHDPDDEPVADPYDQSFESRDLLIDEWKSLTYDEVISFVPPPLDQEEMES
T1 sequence (P49137 whole entry): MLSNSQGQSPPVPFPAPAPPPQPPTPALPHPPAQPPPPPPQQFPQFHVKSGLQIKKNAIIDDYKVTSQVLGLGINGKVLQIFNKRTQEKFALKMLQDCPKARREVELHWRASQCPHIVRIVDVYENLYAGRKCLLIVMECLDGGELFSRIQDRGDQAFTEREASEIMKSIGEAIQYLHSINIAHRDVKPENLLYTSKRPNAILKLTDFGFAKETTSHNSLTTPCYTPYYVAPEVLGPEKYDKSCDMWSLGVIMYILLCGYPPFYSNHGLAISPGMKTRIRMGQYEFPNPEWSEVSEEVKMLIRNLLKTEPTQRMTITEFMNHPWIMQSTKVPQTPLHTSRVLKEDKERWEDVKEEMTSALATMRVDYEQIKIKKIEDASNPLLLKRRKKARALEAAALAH
Sequence of p38-MK2 (Q16539 whole entry): as the sequence (Q16539 whole entry) above
Sequence of p38-MK2 (P49137 whole entry): as the sequence (P49137 whole entry) above
T2 sequence (Q16539 whole entry): as the sequence (Q16539 whole entry) above

Turning to `Cc1cnc(-c2ccnc(C(C)(C)O)n2)cc1-n1c(C)cc(OCc2ncc(F)cc2F)c(Cl)c1=O` [ATI-450], at p38-MK2, the efficacy result was “outstanding and lasting efficacy”; the safety and tolerability result is “safe and tolerable”.

As a reminder, the MRT is a mean duration of stay, worked out from the concentration-time curve. As usually defined, the Tmax is the time at which the peak concentration occurs. With `[2H]C([2H])(Oc1cc2n(c(=O)c1Cl)-c1c(cnc(-c3ccnc(C(C)(C)O)n3)c1F)CCCC2)c1ncc(F)cc1F` [Example 9-1, (R)-11-chloro-10-((3,5-difluoropyridin-2-yl)methoxy-d2)-1-fluoro-2-(2-(2-hydroxypropan-2-yl)pyrimidin-4-yl)-5,6,7,8-tetrahydro-12H-dipyrido[1,2-a:3′4′-g]azocin-12-one], the IC50 stood at 0.1 nM in the series with p-Hsp27 in U937 cells; 0.14 nM on p38α/MK2 (0.06 nM p38a, 1.2 nM MK2, 25 μM ATP, read-out: p38/MK2 IC50); 22.9 nM in series [2]; 0.12 nM in the series on TNF-α in U937 cells. Besides, at p38α/MK2 (selectivity ratio p38 IC50 over p38/MK2 IC50), the “Selectivity ratio (p38 IC50 / p38/MK2 IC50)” value is recorded as 164. Also, in series [1] (read-out: Area under the curve AUC0-∞), the AUC(0-inf) was 22000 ng·h/mL. Besides, the half-life in series [1] (read-out: Half-life t1/2 (converted)) is 2.5 h. In addition, in series [1] (read-out: Mean residence time MRT), the MRT came to 3.8 h. Besides, the Cmax in series [1] (read-out: Plasma concentration Cmax) was 3760 ng/mL. Besides, the Tmax in series [1] (read-out: Time to peak tmax) was 0.5 h.
